Columns and labels:
Type in all cases: physicochemical
[1] = Solubility of dye in organic solvent at 25° C.
[2] = Thermal stability of dyes (mass loss measured by TGA); conditions: air atmosphere
Protocol: (1) Thermal Stability of Dyes (Mass Loss Measured by TGA):
The thermal stability of dye itself was determined by the mass loss of dye measured by TGA under air atmosphere at 230° C. for 1 hour. This evaluation reflects chemical stability of the dye itself

[3] = Thermal stability of films (chromaticity difference before and after hard baking); conditions: for Thermal stability of a film at 230° C. (ΔEab): film with acrylic resin baked at 230° C. under air for 1 hour, smaller = better heat resistance; for Thermal stability (in words): summary referring to Table 1
Protocol: The obtained dry film was baked at 230° C. under air for 1 hour to evaluate thermal stability of the film. Optical performance before and after baking (ΔEab value) was 1.6. A smaller ΔEab value indicates better heat resistance.
(4) Thermal Stability of Films (Chromaticity):
The wet film after spin coating is dried in oven at 90° C. for 30 minutes and then soft baked at 150° C. for 15 minutes. The chromaticity coordinates (L, a, b) are recorded with UltraScan Pro (Hunterlab) colorimeter. D65 light source is used and results are based on CIE Lab coordinates. After that the film is hard baked at target temperature (230° C.) for 1 hour and the new chromaticity coordinates (L′, a′, b′) are recorded with the method above. The thermal stability of a film is indicated by the difference of chromaticity coordinate before and after hard baking represented by the following formula;
ΔE=√{square root over ((L−L′)^2+(a−a′)^2+(b−b′)^2)}

| Molecule | Solubility in PGMEA at 25° C. (wt %) [1] | Solubility in cyclohexanone at 25° C. (wt %) [1] | Mass loss measured by TGA at 230° C. for 1 hour (%) [2] | Thermal stability of a film at 230° C. (ΔEab) [3] | Thermal stability (in words) [3] | Solubility in cyclohexanone and PGMEA (in words) ([1]; summary referring to Table 1) |
| --- | --- | --- | --- | --- | --- | --- |
| CNc1ccc(Nc2cccc(C)c2)c2c1C(=O)c1ccccc1C2=O [compound 1, C.I. solvent blue 63] | 1.23 wt % | 3.0 wt % | 14.04% | 18.4 | very poor thermal stability | – |
| CCCCOc1ccc(OCCCC)c2c1-c1nc-2nc2[nH]c(nc3nc(nc4[nH]c(n1)c1c(OCCCC)ccc(OCCCC)c41)-c1c(OCCCC)ccc(OCCCC)c1-3)c1c(OCCCC)ccc(OCCCC)c21 [compound 3] | 0.17 wt % | 9.0 wt % | 13.08% | 21.5 | very poor thermal stability | – |
| c1ccc2c(c1)C1=Nc3c4ccccc4c4[n]3[Cu-2]35[n]6c(c7ccccc7c6=NC6=[N+]3C(=N4)c3ccccc36)=NC2=[N+]15 [compound 4] | insoluble | insoluble | 0.02% | – | – | insoluble |
| C.I. disperse red 343 [compound 2] | 1.98 wt % | 4.0 wt % | 9.56% | 13.3 | very poor thermal stability | – |
